Measured values: publication PMC8955854, “The Peptide Hormone CNMa Influences Egg Production in the Mosquito Aedes aegypti” (Insects, 2022)
Entries after “also recorded” stand apart in the source; their conditions may differ.

Experiments:
[1] = tested on: CHO K1 aeq mCherry-expressing cells; assay: Negative control: luminescence in CHO-K1 aeq cells expressing mCherry; format: cell-based, Chinese hamster; conditions: 1 µM peptide; CHO K1 aeq cells transfected with pcDNA3.1+ mCherry
From the text: (§1) The CNMa peptide was synthesized and HPLC purified (>90% purity) by Royobiotechs (Shanghai, China) based on the published sequence of the AeCNMa peptide sequence. Both the amidated (YMSLCHFKLCNMa) and the non-amidated (YMSLCHFKLCNM) were produced with a disulfide bridge between cysteines 5 and 10. The complete coding sequence of the two putative Ae. aegypti CNMa receptors (VectorBase genes AAEL024199 and AAEL018316, which we henceforth refer to as AeCNMaR-1a and AeCNMaR-1b, respectively) were commercially synthesized (Integrated DNA Technologies) and subsequently subcloned into a pcDNA3.1+ mammalian expression vector [24]. […]
Other Ae. aegypti peptides used in this study included “capability” (CAPA)-1 (GPTVGLFAFPRV-NH2), CAPA-2 (pQGLVPFPRV-NH2), AedaeCAPA-pyrokinin (PK) 1 (AGNSGANSGMWFGPRL-NH2), adipokinetic/corazonin-like peptide (ACP; pQVTFSRDWNA-NH2), adipokinetic hormone (AKH) (pQLTFTPSW-NH2), and corazonin (CRZ; pQTFQYSRGWTN-NH2). […] Single concentrations of the various peptides were loaded into individual wells of white 96-well luminescence plates (Greiner Bio-One, Frickenhausen, Germany) with each peptide concentration tested in quadruplicate. […]

AeCNMaR-1b (AAEL018316) = AeCNMaR-1b (AAEL018316) (Aedes aegypti, UniProt A0A1S4G7J8); assay: Receptor activation, aequorin luminescence in CHO-K1 aeq cells expressing AeCNMaR-1b; format: cell-based; conditions: AeCNMaR-1b
From the text: as §1, with “[24]. A Chinese hamster ovary cell line stably expressing the calcium-dependent bioluminescent protein aequorin (CHO-K1 aeq) was grown in Dulbecco’s modified eagles medium: nutrient F12 (DMEM:F12) media containing 10% heat-inactivated fetal bovine serum (FBS; Wisent, St. Bruno, QC, Canada), 200 μg/mL geneticin, and an antimycotic-antibiotic mixture as described previously.” for “[24].”
Other Ae. aegypti peptides used in this study included “capability” (CAPA)-1 (GPTVGLFAFPRV-NH2), CAPA-2 (pQGLVPFPRV-NH2), AedaeCAPA-pyrokinin (PK) 1 (AGNSGANSGMWFGPRL-NH2), adipokinetic/corazonin-like peptide (ACP; pQVTFSRDWNA-NH2), adipokinetic hormone (AKH) (pQLTFTPSW-NH2), and corazonin (CRZ; pQTFQYSRGWTN-NH2). […] Single concentrations of the various peptides were loaded into individual wells of white 96-well luminescence plates (Greiner Bio-One, Frickenhausen, Germany) with each peptide concentration tested in quadruplicate. CHO-K1 aeq cells expressing either of the two AeCNMa receptors or mCherry were prepared for the functional assay, as described above, and injected into each well of the 96-well luminescence plates by an automated injector unit integrated with the Synergy 2 Multi-Mode Microplate Reader (BioTek, Winooski, VT, USA). The kinetic luminescent response was measured for 10 s immediately following the application of the cells into the wells containing the different peptide treatments or the negative (i.e., BSA media alone) or positive (i.e., 50 μM ATP) controls as described previously. Data was assembled in Microsoft Excel and then analyzed in GraphPad Prism 7.02 (GraphPad Software, San Diego, CA, USA) where the dose–response curves from multiple biological replicates were used to determine the half maximal effective concentrations (EC50).

AeCNMaR-1a (AAEL024199) = AeCNMaR-1a (AAEL024199) (Aedes aegypti, UniProt A0A6I8U3V2); assay: Receptor activation, aequorin luminescence in CHO-K1 aeq cells expressing AeCNMaR-1a; format: cell-based
From the text: The CNMa peptide was synthesized and HPLC purified (>90% purity) by Royobiotechs (Shanghai, China) based on the published sequence of the AeCNMa peptide sequence. Both the amidated (YMSLCHFKLCNMa) and the non-amidated (YMSLCHFKLCNM) were produced with a disulfide bridge between cysteines 5 and 10. The complete coding sequence of the two putative Ae. aegypti CNMa receptors (VectorBase genes AAEL024199 and AAEL018316, which we henceforth refer to as AeCNMaR-1a and AeCNMaR-1b, respectively) were commercially synthesized (Integrated DNA Technologies) and subsequently subcloned into a pcDNA3.1+ mammalian expression vector [24]. A Chinese hamster ovary cell line stably expressing the calcium-dependent bioluminescent protein aequorin (CHO-K1 aeq) was grown in Dulbecco’s modified eagles medium: nutrient F12 (DMEM:F12) media containing 10% heat-inactivated fetal bovine serum (FBS; Wisent, St. Bruno, QC, Canada), 200 μg/mL geneticin, and an antimycotic-antibiotic mixture as described previously. When cells reached 80–90% confluency, they were transfected using Lipofectamine 3000 transfection reagent following manufacturer recommendations (Life Technologies, Burlington, ON, Canada) to transiently express a mammalian construct in pcDNA3.1+ containing either of the two candidate CNMa receptors or mCherry (pcDNA3.1+ mCherry was a gift from Scott Gradia, Addgene plasmid #30125), the latter of which served as a negative control for the receptor functional assay. After 48 h following transfection, CHO-K1 aeq cells were harvested by dislodging from culture flasks using Dulbecco’s PBS containing EDTA and subsequently resuspended in receptor assay media.
Other Ae. aegypti peptides used in this study included “capability” (CAPA)-1 (GPTVGLFAFPRV-NH2), CAPA-2 (pQGLVPFPRV-NH2), AedaeCAPA-pyrokinin (PK) 1 (AGNSGANSGMWFGPRL-NH2), adipokinetic/corazonin-like peptide (ACP; pQVTFSRDWNA-NH2), adipokinetic hormone (AKH) (pQLTFTPSW-NH2), and corazonin (CRZ; pQTFQYSRGWTN-NH2). Serial dilutions of the peptide stocks were prepared in bovine serum albumin (BSA) assay media (DMEM:F12 media + 0.1% BSA + 1× antibiotic-antimycotic) to test concentrations ranging from 10 pM to 50 μM. Single concentrations of the various peptides were loaded into individual wells of white 96-well luminescence plates (Greiner Bio-One, Frickenhausen, Germany) with each peptide concentration tested in quadruplicate. CHO-K1 aeq cells expressing either of the two AeCNMa receptors or mCherry were prepared for the functional assay, as described above, and injected into each well of the 96-well luminescence plates by an automated injector unit integrated with the Synergy 2 Multi-Mode Microplate Reader (BioTek, Winooski, VT, USA). The kinetic luminescent response was measured for 10 s immediately following the application of the cells into the wells containing the different peptide treatments or the negative (i.e., BSA media alone) or positive (i.e., 50 μM ATP) controls as described previously. Data was assembled in Microsoft Excel and then analyzed in GraphPad Prism 7.02 (GraphPad Software, San Diego, CA, USA) where the dose–response curves from multiple biological replicates were used to determine the half maximal effective concentrations (EC50).

Ae. aegypti females = assay: Egg laying after injection into mated, blood-fed females; format: in vivo, Aedes aegypti
Experimental: (§2) Three- to five-day-old mated females were blood-fed as detailed above, and groups were injected with a range of CNMa in 0.5 μL of saline or saline alone (AS) for a control. Females were allowed to recover and then housed individually in mesh cages. At 3 d PBM, a wet paper towel was provided to the females to facilitate egg laying for up to 48 h and then the number of eggs was counted. To assess possible interactions of CNMa with OEH and ILP3, mated females were blood-fed then decapitated and injected at 1 h PBM with 150 pmol of CNMa, OEH, or ILP3, or combinations of each hormone. Ovaries were dissected at 24 h PBM and yolk deposition was measured along the anterior–posterior axis for five oocytes from each individual, using an ocular micrometer fitted to a dissecting microscope. For CNMa and JH experiments, pupae were isolated in eclosion chambers for 6 h and females were collected. Females were divided into two groups, one which was immediately injected with 150 pmol of CNMa or saline. The other half of the cohort was held for an additional 8 h then injected with the same solutions. At 3 d post-eclosion, females were blood-fed and oviposition was measured for all treatment groups.
Figure 5 AeCNMa reduces egg clutch size in mated Ae. aegypti females. […] After three days females were allowed to oviposit and eggs were counted 48 h later. […]

[2] = tested on: JH-responsive gene kruppel-homolog 1 (kh-1); assay: kh-1 transcript abundance (qPCR) after injection into females; format: in vivo, Aedes aegypti; conditions: CNMa or saline injected females
Experimental: (§3) Cohorts of female Ae. aegypti were sampled 8 to 10 days post-eclosion, pre-blood meal (NBF), then at 2, 4, 6, 8, 12, 24, 48, and 72 h PBM. Four or more females from each timepoint were dissected in cold, RNase-free PBS into head, midgut, ovaries, and abdominal body wall and fat body (“pelt”). Tissue samples were immediately frozen and stored at −80 °C. Tissues were thawed on ice, homogenized with a rotor type pestle, and then total RNA was extracted using the RNeasy Mini kit (Qiagen, Venlo, The Netherlands) according to the manufacturer’s instructions. RNA was treated with DNase using the Turbo DNA-free kit (Ambion, Austin, TX, USA). cDNA was synthesized from 100 ng of RNA with the iScript cDNA synthesis kit (BioRad, Hercules, CA, USA) and used as template in qPCR using the Quantifast SYBR Green PCR kit (Qiagen). The primers for each product are listed in Table S1. qPCR was performed on the Qiagen Rotorgene as described in [28]. Absolute standard curves were produced by cloning each qPCR product into the pSCA vector using the Strataclone PCR cloning kit (Agilent, Santa Clara, CA, USA) and preparing plasmid standards of a known copy number. For comparisons between mating status, the copy number of each target was normalized to the copy number of ribosomal protein S7.
(§4) For e74, expression is relative to e74 expression in AS-treated insects.

[3] = tested on: Ae. aegypti females (decapitated); assay: Yolk deposition in blood-fed decapitated females; format: in vivo, Aedes aegypti
Experimental: as §2
Average amount of yolk per oocyte in mated, blood fed, decapitated females injected with combinations of CNMa (150 pmol), ILP3 (20 pmol), and OEH (20 pmol), Aedes saline (AS), or not injected (intact or decapitation only) at one-hour post blood meal. Error bars show one standard error above and below the mean.

[4] = tested on: ecdysteroid-responsive gene e74; assay: e74 transcript abundance (qPCR) after injection into females; format: in vivo, Aedes aegypti; conditions: CNMa or saline injected females, qPCR relative to AS-treated, MANOVA e74: F3,19 = 0.8192, p = 0.50
Experimental: as §3, §4

Sequence of AeCNMaR-1a (AAEL024199) (A0A6I8U3V2 entry or part of it): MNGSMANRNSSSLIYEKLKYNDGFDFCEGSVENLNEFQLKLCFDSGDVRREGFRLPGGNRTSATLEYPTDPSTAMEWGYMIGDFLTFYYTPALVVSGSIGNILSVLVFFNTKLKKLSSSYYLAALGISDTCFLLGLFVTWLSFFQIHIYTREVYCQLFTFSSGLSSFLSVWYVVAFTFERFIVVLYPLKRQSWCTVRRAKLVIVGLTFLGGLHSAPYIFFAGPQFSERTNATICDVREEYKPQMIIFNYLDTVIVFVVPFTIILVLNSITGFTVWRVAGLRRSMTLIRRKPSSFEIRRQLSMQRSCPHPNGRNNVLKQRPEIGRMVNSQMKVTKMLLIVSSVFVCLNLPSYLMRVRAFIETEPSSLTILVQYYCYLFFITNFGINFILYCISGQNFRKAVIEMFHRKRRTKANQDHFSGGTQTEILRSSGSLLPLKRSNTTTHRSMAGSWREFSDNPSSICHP
Sequence of AeCNMaR-1b (AAEL018316) (A0A1S4G7J8 entry or part of it): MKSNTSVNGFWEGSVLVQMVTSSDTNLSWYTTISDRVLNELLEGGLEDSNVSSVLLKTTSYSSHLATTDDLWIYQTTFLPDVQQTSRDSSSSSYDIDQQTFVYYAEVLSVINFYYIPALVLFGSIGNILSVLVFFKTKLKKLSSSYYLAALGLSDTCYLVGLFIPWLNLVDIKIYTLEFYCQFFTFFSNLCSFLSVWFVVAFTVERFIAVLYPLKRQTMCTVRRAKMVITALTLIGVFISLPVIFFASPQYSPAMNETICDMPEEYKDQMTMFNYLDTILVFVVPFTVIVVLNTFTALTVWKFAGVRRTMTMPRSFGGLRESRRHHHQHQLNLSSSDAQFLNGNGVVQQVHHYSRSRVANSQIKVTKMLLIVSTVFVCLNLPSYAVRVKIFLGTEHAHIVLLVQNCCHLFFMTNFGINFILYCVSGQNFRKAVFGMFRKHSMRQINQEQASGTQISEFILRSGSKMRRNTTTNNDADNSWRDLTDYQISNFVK

## YMSLCHFKLCNMa (disulfide) [AeCNMa, Ae. aegypti CNMa peptide, amidated, HPLC purified (>90% purity)]
[1]
  luminescence in mCherry-expressing control cells: No luminescence was detected
AeCNMaR-1b (AAEL018316); amidated AeCNMa vs non-amidated AeCNM
  greater sensitivity for the amidated peptide: 2.4 fold
AeCNMaR-1b (AAEL018316); peptides tested at 1 µM, raw luminescence, one-way ANOVA and Dunnett's test
  luminescent response vs BSA media background: significant response several orders of magnitude over the BSA media background luminescent response
AeCNMaR-1a (AAEL024199); AeCNMaR-1a vs AeCNMaR-1b
  lower concentration activating AeCNMaR-1a than AeCNMaR-1b: ~ 10 fold
AeCNMaR-1a (AAEL024199); AeCNMaR-1a, amidated AeCNMa vs non-amidated AeCNM
  increase in sensitivity for the amidated peptide: 9 fold
AeCNMaR-1a (AAEL024199); AeCNMaR-1a, peptides tested at 1 µM, raw luminescence, one-way ANOVA and Dunnett's test
  luminescent response vs BSA media background: significant response several orders of magnitude over the BSA media background luminescent response
Ae. aegypti females; 150 pmol injected immediately post blood meal, mated, eggs counted after 3 d + 48 h oviposition, control Aedes saline (AS)
  number of eggs laid vs controls: laid significantly fewer eggs than controls; also recorded: produced significantly fewer eggs than controls (p = 0.0087, Wilcoxon rank-sum test)
Ae. aegypti females; injection into mated
  optimal dose (dose-response assay): 150 pmol
[2]; MANOVA kh-1: F1,20 = 0.5141, p = 0.68
  kh-1 expression vs saline: no significant difference in their expression
[2]; MANOVA kh-1: F1,20 = 0.5141, p = 0.68, listed as CNMa
  kh-1 expression vs saline: did not significantly impact expression
[3]; CNMa 150 pmol at 1 h post blood meal, decapitated females, vs decapitated only and AS control, Tukey's HSD
  yolk uptake, CNMa only: not significantly different from decapitated only and AS control treatments
[3]; CNMa 150 pmol, ILP3 20 pmol at 1 h post blood meal, vs ILP3 only and ILP3 and OEH, Tukey's HSD
  yolk uptake, CNMa and ILP3: no significant difference in yolk uptake
[3]; CNMa 150 pmol, ILP3 20 pmol, OEH 20 pmol at 1 h post blood meal, vs ILP3 + OEH injected females, Tukey's HSD
  yolk uptake, CNMa + OEH + ILP3: no significant difference in yolk uptake
[3]; CNMa 150 pmol, OEH 20 pmol at 1 h post blood meal, vs OEH only or OEH + ILP3, Tukey's HSD
  yolk uptake, OEH + CNMa: no significant difference in yolk uptake relative to OEH only or OEH + ILP3 treatments
[3]; decapitated blood-fed females, co-injection
  effect on yolk deposition elicited by OEH, ILP3, or both peptides together: did not affect yolk deposition elicited by OEH, ILP3, or both peptides together
[4]
  e74 expression vs saline: no significant difference in their expression
[4]; listed as CNMa
  e74 expression vs saline: did not significantly impact expression
